This is an account of results in US9539245B2, “Combination of immunotherapies with activators of Tie-2” (Aerpio Therapeutics, Inc., priority 2014, dated 2017).

Assay [1] deals with primary mouse brain endothelial cells (MBMECs). The assay can be described thus: Transendothelial electrical resistance (TEER) measurements of MBMEC monolayers. It is filed as cell-based. To be noted: recombinant human Ang-2 treatment; CD1 mice; FIG. 1 PANEL B. As for the experimental part:
To assess the role of Angiopoietin 1 (Ang-1), Angiopoietin 2 (Ang-2), and a Tie-2 activator in modulating permeability at the blood-brain barrier transendothelial electrical resistance (TEER) measurements were performed to obtain continuous barrier tightness index of primary mouse brain endothelial cells (MBMECs).
TEER measurements were performed as follows: isolated mouse brain microvascular endothelial cells (MBMECs) (100,000 cells/cm^2, 4-6 mice/prep) were seeded onto 1 μm pore 24-well PET transwell inserts (Greiner Bio-One) pre-coated with fibronectin (5 μg/cm^2, Sigma-Aldrich™). The inserts were transferred to a cellZscope® device placed in a humidified incubator (37° C., 5% CO2) and impedance measurements obtained continuously. Treatment was started upon reaching a plateau in TEER levels.
Isolation of mouse brain microvascular endothelial cells (MBMECs) was conducted as follows: Meninges-free brains were pooled and homogenized followed by digesting the pellet with 0.75% Collagenase II (Worthington™) in buffer A (1:1:1 volume ratio) for 1 hour with shaking at 37° C. For removing myelin, samples were resuspended in 25% BSA and centrifuged at 1500×g for 30 min at 4° C., followed by digesting the pellet with Collagenase/Dispase® (Roche™) and DNase I (Worthington™) in buffer A for 12 min at 37° C. […]

The subject of another assay is MBMEC monolayers. The assay can be described thus: Transwell permeability assay of MBMEC monolayers with fluorescent tracers. The class given is cell-based, mouse (C57BL/6J). As to conditions: MBMECs from C57BL/6J mice, FIG. 2. As for the experimental part: MBMECs were isolated from CD1 and C57BL/6J mice pooling 4-6 animals in each preparation and cultured on transwell inserts. Permeability of the MBMEC monolayers to 0.45 kD Lucifer-Yellow (LY; Sigma™), Texas Red® 3 kD dextran (Invitrogen™), TMR 20 kD dextran (Sigma™) and 70 kD FITC dextran (Sigma™) was determined as follows. Medium from the bottom chamber at each time point was read in a fluorescence plate reader (Tecan™) at the corresponding tracer excitation/emission and normalized to the apical chamber fluorescence with the ratio for the control condition set to 100%.
To rule out the possibility that Ang-2-mediated permeability was specific to the CD1 strain of mice used in the experiment, transwell assays applying fluorescent dextrans (3 kD, 20 kD, and 70 kD) and Lucifer-Yellow (LY 0.45 kD), using C57BL/6J mice were conducted.

Assay [2] relates to stroke after MCAO in mice. The assay can be described thus: Middle cerebral artery occlusion (MCAO) stroke model in mice. The class given is in vivo, mouse. As for the experimental part: Mice with endothelial-specific overexpression of hAng-2 (DT mice) underwent a permanent middle cerebral artery occlusion (MCAO). After a permanent MCAO was performed, animals were allowed to survive for 24 hours or 72 hours. Mice were anesthetized intraperitoneally (i.p.) with a combination of midazolam/medetomidine/fentanyl (5/0.5/0.05 mg/kg body mass). Anesthesia was terminated by i.p. injection of atipamezol/naloxone/flumazenil 2.5/1.2/0.5 mg/kg body weight). Brains were isolated and frozen down in Tissue TEK® O.C.T. and stored at −80° C. until use. WT mice also underwent the procedure as controls.
Larger infarcts were detected in DT mice that were subjected to MCAO as compared to WT mice that were subjected to MCAO after 24 hours and 72 hours (FIG. 9). Additionally, the IgG permeability in the stroke area was increased in DT mice (FIG. 10). Mice were treated with a Tie-2 activator shown below: […]

Assay [3] deals with Tie-2. Kind of assay: Western blot and staining of the stroke hemisphere of treated mice. The arrangement: species or system mouse. To be noted: in vivo. As for the experimental part: (§1) For the Western blot experiments, samples were solubilized in urea/SDS buffer (2.3 M urea, 1.5% SDS, 50 mM Tris, 25 mM TCEP, and 0.01% BPB) for 1.5 h at 30° C. with shaking. Solubilized samples were loaded into Tris-HCl Bis-acrylamide gels (8-15%), electrophoresed, and subsequently transferred to nitrocellulose membranes at 4° C. overnight. Membranes were blocked for 1 hour at room temperature on a 1× Roti®-block (Roth™), incubated with primary antibodies overnight at 4° C., washed with PBS-T (0.5% Tween®-20), incubated with horseradish peroxidase-conjugated or fluorescent secondary antibodies (LI-COR™) for 1 h at room temperature. Membranes were imaged in Odyssey® (LI-COR™) imaging device and quantitation was performed on exported raw tiff files using Image Studio™ 2.1 software (LI-COR™).
Activation of Tie-2 upon treatment indicated by higher pTie-2 and pAkt levels in stroke hemispheres confirms in vivo activity (FIG. 15). […] FIG. 16 illustrates representative images (n=2 each group) of Tie-2 (red) and pTie-2 (green) staining of the stroke hemisphere.
Background: In western blotting, separated proteins are transferred to a membrane and probed.

The test system of assay [4] is Tie-2. The assay can be described thus: Western blot analysis of MBMECs pre-treated with hAng-2. It is filed as cell-based, mouse. To be noted: MBMECs pretreated with hAng-2 (16 h, 500 ng/ml), then Tie-2 activator 50 μM, 10 min. As for the experimental part: as §1
Activation of Tie-2/Akt by the Tie-2 activator alone indicates a direct and specific effect of this drug. Phosphorylation of VE-Cadherin responsible for increased junctional permeability was reduced upon treatment with the Tie-2 activator (FIGS. 13 and 14). This observation explains in part the decreased permeability and stroke size in vivo.

“Also recorded” adds a separate entry of the source.

Consider “rhAng-2: recombinant human angiopoietin 2, a Tie-2 ligand”, for which the “transendothelial electrical resistance (TEER) of MBMECs” value in assay [1] is listed as “decrease in TEER; also recorded: decrease in transendothelial electrical resistance”. The “permeability to tracers (fluorescent dextrans 3 kD, 20 kD, 70 kD and Lucifer-Yellow 0.45 kD)” value with MBMEC monolayers is reported as “increased permeability to tracers of all sizes”.

Turning to `CCc1nc([C@H](Cc2ccc(NS(=O)(=O)O)cc2)NC(=O)[C@H](Cc2ccccc2)NC(=O)OC)cs1` [Tie-2 activator], the “stroke size (TTC staining)” value in assay [2] (WT mice after MCAO, compared to vehicle dH2O control, FIG. 11) is on record as “significantly decreased stroke sizes”. Moreover, the “permeability to IgG in the stroke area” value in assay [2] (mice after MCAO, compared to control) is listed as “Decreased permeability to IgG”. The “neurological behavior after stroke (behavior scoring test)” value in assay [2] (mice after stroke, FIG. 19) is “improvement in neurological behavior”. Moreover, the “Akt activation (pAkt) in the stroke hemisphere” value in the assay on Tie-2 [3] (Western blot, n=7, FIG. 15) is recorded as “increased Akt activation”. Further, in the assay on Tie-2 [3] (treated mice compared to controls, FIGS. 15 and 16), the “pTie-2 in the stroke hemisphere” value is on record as “increased pTie-2 staining”. In the assay on Tie-2 [4] (FIGS. 13 and 14), the “Akt activation (pAkt levels)” value is “increased Tie-2 and Akt activation”; the “Tie-2 activation (pTie-2 levels)” value is on record as “increased levels of pTie-2”. The “phosphorylation of VE-Cadherin (pVE-Cadherin)” value with Tie-2 [4] (n=3) was “decreased in tendency, but not significant”.
